# The source made the active and inactive calls. The calls are words filed in the database; no cut-off is given here.
# Key:
# [1] = test system: PC-12; experiment: Neuroprotective activity against H2O2 induced damage in […] PC12 cells assessed as cell viability at 1 to 10 uM preincubated for 4 hrs followed by H2O2 challenge for 20 hrs by MTT assay; type: functional, cell-based; settings: Rattus norvegicus
# [2] = target: Acetylcholinesterase (Electrophorus electricus, UniProt O42275); experiment: Inhibition of electric eel acetylcholinesterase preincubated for 5 mins followed by addition of acetylthiocholine iodide as substrate measured after 60 to 120 mins by Ellmans method
# Chain of Acetylcholinesterase (Electrophorus electricus, UniProt O42275) (O42275 whole entry): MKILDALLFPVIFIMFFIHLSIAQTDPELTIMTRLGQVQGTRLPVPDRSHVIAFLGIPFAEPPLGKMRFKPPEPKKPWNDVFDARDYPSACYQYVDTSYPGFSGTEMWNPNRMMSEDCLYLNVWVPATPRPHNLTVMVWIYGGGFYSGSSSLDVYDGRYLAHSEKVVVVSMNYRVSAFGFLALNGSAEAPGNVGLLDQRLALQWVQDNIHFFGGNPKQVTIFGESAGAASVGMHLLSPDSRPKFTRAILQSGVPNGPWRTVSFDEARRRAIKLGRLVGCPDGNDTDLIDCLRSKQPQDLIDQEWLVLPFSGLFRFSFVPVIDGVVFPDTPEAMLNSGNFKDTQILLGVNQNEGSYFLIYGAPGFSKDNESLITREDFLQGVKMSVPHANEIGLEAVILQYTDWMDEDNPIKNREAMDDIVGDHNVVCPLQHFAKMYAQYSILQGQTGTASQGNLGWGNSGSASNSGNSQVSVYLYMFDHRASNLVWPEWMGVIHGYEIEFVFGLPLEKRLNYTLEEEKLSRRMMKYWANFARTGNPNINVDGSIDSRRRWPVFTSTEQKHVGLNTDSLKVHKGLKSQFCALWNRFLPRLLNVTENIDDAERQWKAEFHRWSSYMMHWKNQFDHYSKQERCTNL
# [3] = target: Cholinesterase (Equus caballus, UniProt P81908); experiment: Inhibition of equine serum butyrylcholinesterase preincubated for 5 mins followed by addition of S-butyrylthiocholine iodide as substrate measured after 60 to 120 mins by Ellmans method
# Chain of Cholinesterase (Equus caballus, UniProt P81908) (P81908 whole entry): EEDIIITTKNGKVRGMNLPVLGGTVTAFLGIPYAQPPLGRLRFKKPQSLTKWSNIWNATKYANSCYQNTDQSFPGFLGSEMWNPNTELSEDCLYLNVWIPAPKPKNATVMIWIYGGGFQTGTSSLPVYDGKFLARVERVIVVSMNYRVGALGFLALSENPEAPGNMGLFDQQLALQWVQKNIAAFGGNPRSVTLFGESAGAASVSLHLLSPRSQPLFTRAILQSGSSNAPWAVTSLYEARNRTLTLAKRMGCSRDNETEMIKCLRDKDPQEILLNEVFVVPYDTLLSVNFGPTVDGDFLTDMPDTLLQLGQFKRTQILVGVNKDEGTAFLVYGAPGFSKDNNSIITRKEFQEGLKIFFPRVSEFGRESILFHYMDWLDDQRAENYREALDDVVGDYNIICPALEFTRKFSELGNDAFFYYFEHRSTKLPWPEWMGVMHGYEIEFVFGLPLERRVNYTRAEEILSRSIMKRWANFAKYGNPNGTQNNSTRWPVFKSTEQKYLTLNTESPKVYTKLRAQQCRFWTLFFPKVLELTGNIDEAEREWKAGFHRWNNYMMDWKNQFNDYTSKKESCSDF
# [4] = DPPH radical solution, 30 min
# Description: Antioxidant activity assessed as DPPH radical scavenging activity incubated in dark for 30 mins by spectrophotometry
# [5] = Cytotoxicity against […] PC12 cells assessed as cell viability at 20 uM after 24 hrs by MTT assay; type: cell-based; settings: rat, pc-12, 24 h
# [6] = Selectivity index, ratio of IC50 for equine serum butyrylcholinesterase to IC50 for electric eel acetylcholinesterase
# [7] = species: Homo sapiens; experiment: Selectivity index, ratio of IC50 for human serum butyrylcholinesterase to IC50 for human erythrocytes acetylcholinesterase
# [8] = target: Cholinesterase (Homo sapiens, UniProt P06276); experiment: Inhibition of human serum butyrylcholinesterase preincubated for 5 mins followed by addition of S-butyrylthiocholine iodide as substrate measured after 60 to 120 mins by Ellmans method
# Chain of Cholinesterase (Homo sapiens, UniProt P06276) (P06276 whole entry): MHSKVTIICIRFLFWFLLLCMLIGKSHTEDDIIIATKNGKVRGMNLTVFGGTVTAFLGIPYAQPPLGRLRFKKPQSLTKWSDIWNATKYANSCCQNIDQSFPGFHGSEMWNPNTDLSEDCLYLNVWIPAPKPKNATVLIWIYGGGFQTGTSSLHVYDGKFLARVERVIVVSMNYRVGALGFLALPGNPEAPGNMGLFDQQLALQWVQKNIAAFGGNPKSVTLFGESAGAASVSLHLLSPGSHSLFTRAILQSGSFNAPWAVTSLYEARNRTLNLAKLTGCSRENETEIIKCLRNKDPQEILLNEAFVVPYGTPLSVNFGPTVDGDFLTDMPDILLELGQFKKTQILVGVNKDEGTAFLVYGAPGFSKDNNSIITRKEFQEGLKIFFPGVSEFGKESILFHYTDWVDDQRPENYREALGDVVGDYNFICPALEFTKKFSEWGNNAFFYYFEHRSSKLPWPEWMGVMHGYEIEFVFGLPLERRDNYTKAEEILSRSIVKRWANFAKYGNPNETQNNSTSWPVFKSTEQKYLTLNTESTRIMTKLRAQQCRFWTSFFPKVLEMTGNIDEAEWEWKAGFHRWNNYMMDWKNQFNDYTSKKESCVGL
# [9] = target: Acetylcholinesterase (Homo sapiens, UniProt P22303); experiment: Inhibition of human erythrocytes acetylcholinesterase preincubated for 5 mins followed by addition of acetylthiocholine iodide as substrate measured after 60 to 120 mins by Ellmans method
# Chain of Acetylcholinesterase (Homo sapiens, UniProt P22303) (P22303 whole entry): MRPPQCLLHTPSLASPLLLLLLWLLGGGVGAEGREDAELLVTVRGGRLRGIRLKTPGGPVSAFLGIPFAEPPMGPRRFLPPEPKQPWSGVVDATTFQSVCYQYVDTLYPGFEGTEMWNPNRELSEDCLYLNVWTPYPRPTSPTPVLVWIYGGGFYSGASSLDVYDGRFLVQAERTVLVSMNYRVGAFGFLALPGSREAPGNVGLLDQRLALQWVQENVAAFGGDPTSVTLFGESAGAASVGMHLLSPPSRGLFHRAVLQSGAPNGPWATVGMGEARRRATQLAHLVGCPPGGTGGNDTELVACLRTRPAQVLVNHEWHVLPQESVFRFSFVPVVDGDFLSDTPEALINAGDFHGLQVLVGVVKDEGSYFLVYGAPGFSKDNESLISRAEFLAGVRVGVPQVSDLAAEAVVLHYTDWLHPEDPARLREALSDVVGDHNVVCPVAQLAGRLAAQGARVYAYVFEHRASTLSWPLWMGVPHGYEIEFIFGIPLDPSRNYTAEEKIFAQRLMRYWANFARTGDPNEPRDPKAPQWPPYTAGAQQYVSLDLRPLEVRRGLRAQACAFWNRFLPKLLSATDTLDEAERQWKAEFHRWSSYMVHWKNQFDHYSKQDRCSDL
# [10] = Antioxidant activity assessed as DPPH radical scavenging activity at 1000 uM incubated in dark for 30 mins by spectrophotometry; type: physicochemical; settings: 0.5 h
# [11] = target: Cholinesterase (Equus caballus) (UniProt P81908); experiment: Inhibition of equine serum butyrylcholinesterase at 1000 uM preincubated for 5 mins followed by addition of S-butyrylthiocholine iodide as substrate measured after 60 to 120 mins by Ellmans method
# Chain of Cholinesterase (Equus caballus) (P81908 whole entry): as the sequence (P81908 whole entry) above
# [12] = in vitro; settings: PAMPA
Compound,Activity [1],IC50 [2] [µM],IC50 [3] [µM],IC50 [4] [µM],Activity [5],Ratio IC50 [6],Ratio IC50 [7],IC50 [8] [µM],IC50 [9] [µM],inhibition (INH) [10],inhibition [11],"Papp at 16 h, 5 mg/mL [12] [×10⁻⁶ cm/s]"
O=C(/C=C/c1ccc(O)c(O)c1)NC1CCN(Cc2ccccc2)CC1,Active,62.1,15,10.6,Non-toxic,0.241,–,–,–,–,–,–
O=C(/C=C/c1ccc(O)cc1)NCCC1CCN(Cc2ccccc2)CC1,–,0.874,1.24,936,Non-toxic,1.42,0.36,0.784,2.2,–,–,–
O=C(/C=C/c1ccc(Cl)cc1)NC1CCN(Cc2ccccc2)CC1,–,67.7,51.4,–,Non-toxic,0.759,–,–,–,Not Active,–,–
NCCC1CCN(Cc2ccccc2)CC1,–,159,–,–,–,–,–,–,–,–,inactive,–
O=C(/C=C/c1ccc(Cl)cc1)NCCC1CCN(Cc2ccccc2)CC1,–,0.521,2.77,–,Toxic,5.32,5.72,2.07,0.362,Not Active,–,–
O=C(/C=C/c1ccc(F)cc1)NCCC1CCN(Cc2ccccc2)CC1,–,0.815,1.98,–,Non-toxic,2.43,2.28,7.51,3.3,Not Active,–,–
COc1cc(/C=C/C(=O)NC2CCN(Cc3ccccc3)CC2)ccc1OC(C)=O,–,22,17.3,–,Non-toxic,0.786,–,–,–,Not Active,–,–
COc1cc(/C=C/C(=O)NCCC2CCN(Cc3ccccc3)CC2)ccc1OC(C)=O,–,0.29,0.67,–,Non-toxic,2.31,0.72,0.245,0.339,Not Active,–,–
COc1cc(/C=C/C(=O)NC2CCN(Cc3ccccc3)CC2)cc(OC)c1O,–,28.2,7.34,22.3,Non-toxic,0.26,–,–,–,–,–,–
O=C(/C=C/c1ccc([N+](=O)[O-])cc1)NC1CCN(Cc2ccccc2)CC1,–,7.12,9.01,–,Non-toxic,1.26,–,–,–,Not Active,–,–
COc1cc(/C=C/C(=O)NC2CCN(Cc3ccccc3)CC2)ccc1O,–,29.3,49.2,32.5,Non-toxic,1.68,–,–,–,–,–,–
COc1ccc(/C=C/C(=O)NCCC2CCN(Cc3ccccc3)CC2)cc1O,–,1.06,2.47,764,Non-toxic,2.33,1.95,3.24,1.66,–,–,–
COc1cc(/C=C/C(=O)CC(=O)NC2CCN(Cc3ccccc3)CC2)ccc1O,–,26.3,53.2,88.7,Non-toxic,1.99,–,–,–,–,–,–
O=C(/C=C/c1ccc(F)cc1)NC1CCN(Cc2ccccc2)CC1,–,59.3,90.8,–,Non-toxic,1.53,–,–,–,Not Active,–,–
O=C(/C=C/c1ccc([N+](=O)[O-])cc1)NCCC1CCN(Cc2ccccc2)CC1,–,0.444,3.1,–,Non-toxic,6.98,12.5,4.23,0.337,Not Active,–,–
O=C(/C=C/c1ccc(O)cc1)CC(=O)NC1CCN(Cc2ccccc2)CC1,–,58.3,3.1,890,Non-toxic,0.053,–,–,–,–,–,–
O=C(/C=C/c1ccc(O)c(O)c1)NCCC1CCN(Cc2ccccc2)CC1,Active,5.17,165,10.7,Non-toxic,31.9,100,145,1.45,–,–,5.38
O=C(/C=C/c1ccccc1)NCCC1CCN(Cc2ccccc2)CC1,–,0.543,0.39,–,Non-toxic,0.718,3.43,1.41,0.411,Not Active,–,–
O=C(/C=C/c1ccc(O)cc1)NC1CCN(Cc2ccccc2)CC1,–,70.8,146,980,Non-toxic,2.06,–,–,–,–,–,–
COc1cccc(/C=C/C(=O)NCCC2CCN(Cc3ccccc3)CC2)c1,–,0.383,0.244,–,Non-toxic,0.642,2.09,1.44,0.69,Not Active,–,–
COc1ccc(/C=C/C(=O)NCCC2CCN(Cc3ccccc3)CC2)cc1OC,–,0.285,1.55,–,Non-toxic,5.43,4.83,2.54,0.526,Not Active,–,–
COc1cc(CCC(=O)NCCC2CCN(Cc3ccccc3)CC2)ccc1O,Active,7.48,4.4,48.3,Non-toxic,0.588,0.054,0.286,5.32,–,–,–
COc1cc(/C=C/C(=O)CC(=O)NCCC2CCN(Cc3ccccc3)CC2)ccc1O,–,2.6,1.08,76.8,Non-toxic,0.415,–,–,–,–,–,–
O=C(/C=C/c1ccccc1O)NCCC1CCN(Cc2ccccc2)CC1,–,2.16,1.06,977,Non-toxic,0.491,0.37,0.988,2.68,–,–,–
COc1cc(/C=C/C(=O)NCCC2CCN(Cc3ccccc3)CC2)cc(OC)c1OC,–,0.13,0.416,–,Non-toxic,3.2,2.86,0.669,0.234,Not Active,–,7.43
COc1cc(/C=C/C(=O)NC2CCN(Cc3ccccc3)CC2)cc(OC)c1OC,–,31.6,1.25,–,Non-toxic,0.038,–,–,–,Not Active,–,–
Cc1c(C)c2c(c(C)c1O)CCC(C)(C(=O)O)O2 (configuration not stated),Active,–,–,–,–,–,–,–,–,–,–,–
COc1cc(CCC(=O)NC2CCN(Cc3ccccc3)CC2)ccc1O,–,33.6,31.9,55.1,Non-toxic,0.949,–,–,–,–,–,–

# From ChEMBL document CHEMBL3817754, “Synthesis and evaluation of donepezilferulic acid hybrids as multi-target-directed ligands against Alzheimer's disease” (Medchemcomm, 2016)
